Assay results: patent publication US20240325398A1, “COMBINATION THERAPIES” (Infinity Pharmaceuticals, Inc., priority 2014, published 2024)

How the values were obtained:
SU-DHL-4-epst = test: Combination study, ATPLite 72 h, dose matrix (Synergy Score, CI50); conditions: combination with Compound 1, 72 h
HH = test: as above; assay type: cell-based; conditions: combination with Compound 1
Description: The method is described as follows.
Additive effect is CI=1.0. […] Antagonistic effect is CI>1.0.
The Synergy Score is calculated as: […]

Jeko-1 = test: as above; conditions: combination with Compound 1
RPMI-8226 = test: as above; conditions: combination with Compound 1
HBL-1 = test: as above; conditions: combination with Compound 1, 72 h
DOHH-2 = test: as above; conditions: combination with Compound 1, 72 h
Description: (§1) Cells are thawed from a liquid nitrogen preserved state. Once cells have been expanded and divide at their expected doubling times, screening begins. Cells are seeded in growth media in either black 1536-well or 384-well tissue culture treated plates. Cells are then equilibrated in assay plates via centrifugation and placed in incubators attached to the Dosing Modules at 37° C. for 24 hours before treatment. […] These Tzero (To) plates are read using ultra-sensitive luminescence on Envision plate readers (Perkin Elmer). Treated assay plates are incubated with compound for 72 hours. After 72 hours, plates are developed for endpoint analysis using ATPLite. All data points are collected via automated processes, quality controlled and analyzed using Zalicus software.
(§2) The measure of effect in the experiment can be the inhibition of cellular response relative to the untreated level (vehicle alone). […] The inhibition ranges from 0% at the untreated level to 100% when T=0. Inhibition levels are negative for agents that actually increase levels.
(§3) Growth Inhibition (GI) is used as a measure of cell viability. […] A GI reading of 100% represents complete growth inhibition—T72 compound-treated and T0 vehicle signals are matched. […] A GI reading of 200% represents complete death of all cells in the culture well. Compounds reaching an activity plateau of GI 200% are considered cytotoxic. GI is calculated by applying the following test and equation:
(§4) Combination analysis data were collected in a 6×6 dose matrix. Synergy is calculated by comparing a combination's response to those of its single compound, against the drug-with-itself dose-additive reference model. Deviations from dose additivity may be assessed visually on an isobologram or numerically with a Combination Index (CI). […] Additive effect is CI=1.0. […] Antagonistic effect is CI>1.0.
(§5) To measure combination effects in excess of Loewe additivity, a scalar measure to characterize the strength of synergistic interaction termed the Synergy Score is devised. The Synergy Score is calculated as:
(§6) The fractional inhibition for each component agent and combination point in the matrix is calculated relative to the median of all vehicle-treated control wells. The Synergy Score equation integrates the experimentally-observed activity volume at each point in the matrix in excess of a model surface numerically derived from the activity of the component agents using the Loewe model for additivity. Additional terms in the Synergy Score equation (above) are used to normalize for various dilution factors used for individual agents and to allow for comparison of synergy scores across an entire experiment. The inclusion of positive inhibition gating or an Idata multiplier removes noise near the zero effect level, and biases results for synergistic interactions at that occur at high activity levels.
(§7) Loewe Volume (Loewe Vol) is used to assess the overall magnitude of the combination interaction in excess of the Loewe additivity model. Loewe Volume is particularly useful when distinguishing synergistic increases in a phenotypic activity (positive Loewe Volume) versus synergistic antagonisms (negative Loewe Volume). […] This model defines additivity as a non-synergistic combination interaction where the combination dose matrix surface should be indistinguishable from either drug crossed with itself. The calculation for Loewe additivity is:

U-2932 = test: as above; conditions: combination with Compound 1, 72 h
Description: as §1
(§8) where T is treated cell count and V is untreated (vehicle) cell count (at 72 hours). I ranges from 0% (when T=V) to 100% (when T=0). […] The measure of effect in the experiment can be the inhibition of cellular response relative to the untreated level (vehicle alone). […] The inhibition ranges from 0% at the untreated level to 100% when T=0. Inhibition levels are negative for agents that actually increase levels. Other effect measures, such as an activity ratio r=T/V may be more appropriate for some assays. When activity ratios (e.g, fold increase over stimulated control) are being used, the effect can be measured using an induction 1=ln(T/V). With this definition, all effect expressions are the same as for inhibition.
as §3, §4, §5, §6, §7

OCI-Ly7 = test: as above; conditions: combination with Compound 1, 72 h
Description: as §1, §2, §3, §4, §5, §6, §7

WSU-NHL = test: as above; conditions: combination with Compound 1, 72 h
OCI-Ly3 = test: as above; conditions: combination with Compound 1; OCI-Ly3; 72 h
NCI-H929 = test: as above; conditions: combination with Compound 1
KARPAS-422 = test: as above; conditions: combination with Compound 1, 72 h
KARPAS-299 = test: as above; conditions: combination with Compound 1
[1] = as above; conditions: combination with Compound 1; OPM-2
Description: as §1, §8, §3, §4, §5, §6
(§9) Loewe Volume (Loewe Vol) is used to assess the overall magnitude of the combination interaction in excess of the Loewe additivity model. Loewe Volume is particularly useful when distinguishing synergistic increases in a phenotypic activity (positive Loewe Volume) versus synergistic antagonisms (negative Loewe Volume). […] This model defines additivity as a non-synergistic combination interaction where the combination dose matrix surface should be indistinguishable from either drug crossed with itself.

OMP-2 = test: as above; conditions: combination with Compound 1; OPM-2
Description: as §1, §8, §3, §4, §5, §6, §9

SU-DHL-10-epst = test: as above; conditions: combination with Compound 1, 72 h
TMD8 = test: as above; conditions: combination with Compound 1; TMD8; 72 h
Description: as §1, §8, §3, §4
The isobologram was drawn by identifying the locus of concentrations that correspond to crossing the indicated inhibition level. This is done by finding the crossing point for each single agent concentration in a dose matrix across the concentrations of the other single agent. Practically, each vertical concentration CY is held fixed while a bisection algorithm is used to identify the horizontal concentration CX in combination with that vertical dose that gives the chosen effect level in the response surface Z(CX,CY). These concentrations are then connected by linear interpolation to generate the isobologram display. For synergistic interactions, the isobologram contour fall below the additivity threshold and approaches the origin, and an antagonistic interaction would lie above the additivity threshold. The error bars represent the uncertainty arising from the individual data points used to generate the isobologram. The uncertainty for each crossing point is estimated from the response errors using bisection to find the concentrations where Z−αZ(CX,CY) and Z+σZ(CX,CY) cross Icut, where αZ is the standard deviation of the residual error on the effect scale.
as §5
The fractional inhibition for each component agent and combination point in the matrix is calculated relative to the median of all vehicle-treated control wells.

Mino = test: as above; conditions: combination with Compound 1
GRANTA-519 = test: as above; conditions: combination with Compound 1
Farage = test: as above; conditions: combination with Compound 1; Farage; 72 h
RL = test: as above; conditions: combination with Compound 1, 72 h

Q: For `CC(C)C[C@H](NC(=O)[C@H](Cc1ccccc1)NC(=O)c1cnccn1)B(O)O` [bortezomib, [(1R)-3-methyl-1-({(2S)-3-phenyl-2-[(pyrazin-2-ylcarbonyl)amino]propanoyl}amino)butyl]boronic acid], which CI50 growth inhibition (SU-DHL-4-epst) is on record?
A: U (U=0.7 to <1)

Q: And the CI50 inhibition (SU-DHL-4-epst)?
A: T (T=0.5 to <0.7)

Q: And the CI50 growth inhibition (HH)?
A: U (U=0.7 to <1)

Q: What about the CI50 inhibition (HH) of the same compound?
A: U (U=0.7 to <1)

Q: What about the CI50 growth inhibition (Jeko-1) of the same compound?
A: U (U=0.7 to <1)

Q: What about the CI50 inhibition (Jeko-1) of the same compound?
A: U (U=0.7 to <1)

Q: And the CI50 growth inhibition (RPMI-8226)?
A: U (U=0.7 to <1)

Q: And the CI50 inhibition (RPMI-8226)?
A: U (U=0.7 to <1)

Q: And the CI50 growth inhibition (HBL-1)?
A: U (U=0.7 to <1)

Q: What about the CI50 inhibition (HBL-1) of the same compound?
A: U (U=0.7 to <1)

Q: What about the CI50 growth inhibition (DOHH-2) of the same compound?
A: U (U=0.7 to <1)

Q: What about the CI50 inhibition (DOHH-2) of the same compound?
A: U (U=0.7 to <1)

Q: And the CI50 growth inhibition (U-2932)?
A: U (U=0.7 to <1)

Q: And the CI50 inhibition (U-2932)?
A: W (W=≥1)

Q: And the CI50 growth inhibition (OCI-Ly7)?
A: U (U=0.7 to <1)

Q: And the CI50 inhibition (OCI-Ly7)?
A: U (U=0.7 to <1)

Q: What about the CI50 growth inhibition (WSU-NHL) of the same compound?
A: U (U=0.7 to <1)

Q: What about the CI50 inhibition (WSU-NHL) of the same compound?
A: U (U=0.7 to <1)

Q: What about the CI50 growth inhibition (OCI-Ly3) of the same compound?
A: U (U=0.7 to <1)

Q: What about the CI50 inhibition (OCI-Ly3) of the same compound?
A: W (W=≥1)

Q: What about the CI50 growth inhibition (NCI-H929) of the same compound?
A: U (U=0.7 to <1)

Q: What about the CI50 inhibition (NCI-H929) of the same compound?
A: W (W=≥1)

Q: What about the CI50 growth inhibition (KARPAS-422) of the same compound?
A: W (W=≥1)

Q: And the CI50 inhibition (KARPAS-422)?
A: W (W=≥1)

Q: And the CI50 growth inhibition (KARPAS-299)?
A: U (U=0.7 to <1)

Q: And the CI50 inhibition (KARPAS-299)?
A: U (U=0.7 to <1)

Q: What about the CI50 growth inhibition [1] of the same compound?
A: W (W=≥1)

Q: And the CI50 inhibition (OMP-2)?
A: W (W=≥1)

Q: And the CI50 growth inhibition (SU-DHL-10-epst)?
A: U (U=0.7 to <1)

Q: What about the CI50 inhibition (SU-DHL-10-epst) of the same compound?
A: U (U=0.7 to <1)

Q: What about the CI50 growth inhibition (TMD8) of the same compound?
A: U (U=0.7 to <1)

Q: What about the CI50 inhibition (TMD8) of the same compound?
A: U (U=0.7 to <1)

Q: What about the CI50 growth inhibition (Mino) of the same compound?
A: U (U=0.7 to <1)

Q: And the CI50 inhibition (Mino)?
A: U (U=0.7 to <1)

Q: What about the CI50 growth inhibition (GRANTA-519) of the same compound?
A: T (T=0.5 to <0.7)

Q: And the CI50 inhibition (GRANTA-519)?
A: U (U=0.7 to <1)

Q: What about the CI50 growth inhibition (Farage) of the same compound?
A: U (U=0.7 to <1)

Q: And the CI50 inhibition (Farage)?
A: U (U=0.7 to <1)

Q: What about the CI50 growth inhibition (RL) of the same compound?
A: U (U=0.7 to <1)

Q: What about the CI50 inhibition (RL) of the same compound?
A: W (W=≥1)

Q: Which results are given for `CC(C)C[C@H](NC(=O)[C@H](CCc1ccccc1)NC(=O)CN1CCOCC1)C(=O)N[C@@H](Cc1ccccc1)C(=O)N[C@@H](CC(C)C)C(=O)[C@@]1(C)CO1` [carfilzomib, (S)-4-methyl-N—((S)-1-(((S)-4-methyl-1-((R)-2-methyloxiran-2-yl)-1-oxopentan-2-yl)amino)-1-oxo-3-phenylpropan-2-yl)-2-((S)-2-(2-morpholinoacetamido)-4-phenylbutanamido)pentanamide]?
A: CI50 growth inhibition (SU-DHL-4-epst): U (U=0.7 to <1); CI50 inhibition (SU-DHL-4-epst): U (U=0.7 to <1); Synergy Score growth inhibition (SU-DHL-4-epst): A3 (A3=>3); Synergy Score inhibition (SU-DHL-4-epst): A2 (A2=1 to <3); CI50 growth inhibition (HH): T (T=0.5 to <0.7); CI50 inhibition (HH): T (T=0.5 to <0.7); Synergy Score growth inhibition (HH): A3 (A3=>3); Synergy Score inhibition (HH): A1 (A1=0.0001 to <1); CI50 growth inhibition (Jeko-1): U (U=0.7 to <1); CI50 inhibition (Jeko-1): U (U=0.7 to <1); Synergy Score growth inhibition (Jeko-1): A1 (A1=0.0001 to <1); Synergy Score inhibition (Jeko-1): A1 (A1=0.0001 to <1); CI50 growth inhibition (RPMI-8226): U (U=0.7 to <1); CI50 inhibition (RPMI-8226): W (W=≥1); Synergy Score growth inhibition (RPMI-8226): A3 (A3=>3); Synergy Score inhibition (RPMI-8226): A1 (A1=0.0001 to <1); CI50 growth inhibition (HBL-1): T (T=0.5 to <0.7); CI50 inhibition (HBL-1): U (U=0.7 to <1); Synergy Score growth inhibition (HBL-1): A1 (A1=0.0001 to <1); Synergy Score inhibition (HBL-1): A1 (A1=0.0001 to <1); CI50 growth inhibition (DOHH-2): U (U=0.7 to <1); CI50 inhibition (DOHH-2): U (U=0.7 to <1); Synergy Score growth inhibition (DOHH-2): A3 (A3=>3); Synergy Score inhibition (DOHH-2): A1 (A1=0.0001 to <1); CI50 growth inhibition (U-2932): U (U=0.7 to <1); CI50 inhibition (U-2932): U (U=0.7 to <1); Synergy Score growth inhibition (U-2932): A2 (A2=1 to <3); Synergy Score inhibition (U-2932): A2 (A2=1 to <3); CI50 growth inhibition (OCI-Ly7): W (W=≥1); CI50 inhibition (OCI-Ly7): W (W=≥1); Synergy Score growth inhibition (OCI-Ly7): A2 (A2=1 to <3); Synergy Score inhibition (OCI-Ly7): A1 (A1=0.0001 to <1); CI50 growth inhibition (WSU-NHL): U (U=0.7 to <1); CI50 inhibition (WSU-NHL): U (U=0.7 to <1); Synergy Score growth inhibition (WSU-NHL): A2 (A2=1 to <3); Synergy Score inhibition (WSU-NHL): A1 (A1=0.0001 to <1); CI50 growth inhibition (OCI-Ly3): U (U=0.7 to <1); CI50 inhibition (OCI-Ly3): W (W=≥1); Synergy Score growth inhibition (OCI-Ly3): A2 (A2=1 to <3); Synergy Score inhibition (OCI-Ly3): A1 (A1=0.0001 to <1); CI50 growth inhibition (NCI-H929): U (U=0.7 to <1); CI50 inhibition (NCI-H929): W (W=≥1); Synergy Score growth inhibition (NCI-H929): A3 (A3=>3); Synergy Score inhibition (NCI-H929): A1 (A1=0.0001 to <1); CI50 growth inhibition (KARPAS-422): T (T=0.5 to <0.7); CI50 inhibition (KARPAS-422): U (U=0.7 to <1); Synergy Score growth inhibition (KARPAS-422): A3 (A3=>3); Synergy Score inhibition (KARPAS-422): A1 (A1=0.0001 to <1); CI50 growth inhibition (KARPAS-299): W (W=≥1); CI50 inhibition (KARPAS-299): W (W=≥1); Synergy Score growth inhibition (KARPAS-299): A1 (A1=0.0001 to <1); Synergy Score inhibition (KARPAS-299): A1 (A1=0.0001 to <1); CI50 growth inhibition [1]: U (U=0.7 to <1); CI50 inhibition (OMP-2): U (U=0.7 to <1); Synergy Score growth inhibition (OMP-2): A2 (A2=1 to <3); Synergy Score inhibition (OMP-2): A1 (A1=0.0001 to <1); CI50 growth inhibition (SU-DHL-10-epst): U (U=0.7 to <1); CI50 inhibition (SU-DHL-10-epst): U (U=0.7 to <1); Synergy Score growth inhibition (SU-DHL-10-epst): A3 (A3=>3); Synergy Score inhibition (SU-DHL-10-epst): A2 (A2=1 to <3); CI50 growth inhibition (TMD8): U (U=0.7 to <1); CI50 inhibition (TMD8): U (U=0.7 to <1); Synergy Score growth inhibition (TMD8): A3 (A3=>3); Synergy Score inhibition (TMD8): A2 (A2=1 to <3); CI50 growth inhibition (Mino): U (U=0.7 to <1); CI50 inhibition (Mino): U (U=0.7 to <1); Synergy Score growth inhibition (Mino): A2 (A2=1 to <3); Synergy Score inhibition (Mino): A1 (A1=0.0001 to <1); CI50 growth inhibition (GRANTA-519): T (T=0.5 to <0.7); CI50 inhibition (GRANTA-519): W (W=≥1); Synergy Score growth inhibition (GRANTA-519): A2 (A2=1 to <3); Synergy Score inhibition (GRANTA-519): A1 (A1=0.0001 to <1); CI50 growth inhibition (Farage): U (U=0.7 to <1); CI50 inhibition (Farage): U (U=0.7 to <1); Synergy Score growth inhibition (Farage): A3 (A3=>3); Synergy Score inhibition (Farage): A1 (A1=0.0001 to <1); CI50 growth inhibition (RL): W (W=≥1); CI50 inhibition (RL): W (W=≥1); Synergy Score growth inhibition (RL): A1 (A1=0.0001 to <1); Synergy Score inhibition (RL): A1 (A1=0.0001 to <1)
